Laboratory results from patent US20140357512A1, “HISTONE DEACETYLASE (HDAC) BIOMARKERS IN MULTIPLE MYELOMA” (priority 2013, published 2014).

Tested on: human myeloma cell line MM.1S
Test: SILAC acetylated-lysine peptide profiling, HDAC inhibitor vs DMSO (light/heavy ratio)
Assay type: cell-based
Description: An embodiment of the invention comprises utilizing the SILAC method in order to quantitate changes in protein expression between two or more populations of cells. The SILAC method is a technique based on mass spectrometry that detects differences in protein abundance among samples using non-radioactive isotopic labeling. The SILAC method is known in the art, and described in detail in Ong et al., “Stable Isotope Labeling by Amino Acids in Cell Culture, SILAC, as a Simple and Accurate Approach to Expression Proteomics”, Molecular & Cellular Proteomics, vol. 1, pp. 376-386 (2002), which is incorporated herein by reference in its entirety.
Briefly, the SILAC method involves growing two populations of cells in cell culture. The first population of cells is grown in growth media containing normal amino acids (“normal media”). The second population of cells is grown in media lacking a standard essential amino acid (such as lysine), but is then supplemented with a non-radioactive, isotopically labeled form of that essential amino acid (such as lysine labeled with ^13C atoms, rather than normal ^12C atoms), which is called “heavy media”. When the two populations of cells are each growing in the medium, they incorporate the amino acids into all of their proteins. The growth of cells maintained in the heavy media is no different from that in normal media. All peptides containing the heavy amino acids are heavier than their normal counterparts. The cells from each of the two populations of cells are lysed. The lysates from each of the two cell populations are then combined. The combined cell lysates are then analyzed by mass spectrometry. Pairs of chemically identical peptides of different stable isotope composition can be differentiated in a mass spectrometer due to their difference in mass. The ratio of peak intensities in the mass spectrum for such peptide pairs reflects the abundance ratio for the two proteins.
This example describes SILAC studies that were performed to compare the effects of three different HDAC inhibitors (Compound A, Compound B, and tubastatin A) to a control on a human multiple myeloma cell line. The HDAC inhibitors were also compared amongst themselves to determine differences in their effects.
A human myeloma cell line MM.1S was grown using either ^12C (light) or ^13C (heavy) lysine containing culture medium. The “heavy” cells were treated with DMSO as the control, and the “light” cells were treated with a single HDAC inhibitor at 37° C. for 6 hours. The heavy and light cells were lysed, and the lysates were mixed in 1:1 ratio and digested with the protease trypsin. The acetylated lysine containing peptides (due to the action of the HDAC inhibitor) in the digested peptide pool were captured by a non-specific anti-acetylated lysine antibody cocktail (the antibodies identify both light and heavy acetylated peptides), and subjected to mass spectrometry analysis in order to identify thousands of individual peptides.
Thousands of peptides were identified in pairs (^12C and ^13C) due to their known mass differences. The amino acid sequence and quantitative ratio (Light/Heavy) of a given peptide in two differentially treated cell lysates were then determined and annotated with their possible protein (gene) sources.
As stated above, three HDAC inhibitors (Compound A, Compound B, and Tubastatin A) were used. Thus, the SILAC method was performed three times, with a different HDAC inhibitor compared to a control each time. Accordingly, there are three pairs of quantitative data in the table below, i.e., Compound A:DMSO, Compound B:DMSO, and Tubastatin A:DMSO. A cut-off of 1.30 fold of change (increase or decrease) was then used to determine “changed” or “+” in the table, and any peptides with a fold of change less than 1.3 fold were determined to be “unchanged” or “0” in the table. Those peptides that were not identified were marked as “NA” in the table. […]

CN1CCc2c(c3ccccc3n2Cc2ccc(C(=O)NO)cc2)C1 [Tub A]
L/H ratio of acetylated peptide MYFDK(ac)YVLKPATEGK (SEQ ID NO: 23) (ATAD3A [491], log 2 scale, drug vs DMSO): 0.62
L/H ratio of acetylated peptide IVEYEK(ac)EMEK (SEQ ID NO: 24) (ATP5H [117], log 2 scale, drug vs DMSO): 0.63
L/H ratio of acetylated peptide YYNK(ac)YINVK (SEQ ID NO: 12) (ATP5J2 [54], log 2 scale, drug vs DMSO): 0.66
light to heavy ratio (L/H ratio) of acetylated peptide QNK(ac)LEQVEK (SEQ ID NO: 271) (ATP synthase subunit O mitochondrial [54], ATP50, drug:DMSO): 0.45 log 2
light to heavy ratio (L/H ratio) of acetylated peptide STVAQLVK(ac)R (SEQ ID NO: 552) (ATP synthase subunit alpha mitochondrial [261], gene ATP5A1, inhibitor:DMSO): 0.00 log 2
light to heavy ratio (L/H ratio) of acetylated peptide ISEQSDAK(ac)LK (SEQ ID NO: 600) (ATP synthase subunit alpha mitochondrial [539], gene ATP5A1, inhibitor:DMSO): 0.00 log 2
light to heavy ratio (L/H ratio) of acetylated peptide HVVQSISTQQEK(ac)ETIAK (SEQ ID NO: 307) (ATP synthase subunit b mitochondrial [233], ATP5F1, drug:DMSO): 0.62 log 2
light to heavy ratio (L/H ratio) of acetylated peptide IVNSAQTGSFK(ac)QLTVK (SEQ ID NO: 279) (ATP synthase subunit g mitochondrial [66], ATP5L, drug:DMSO): 0.77 log 2
light to heavy ratio (L/H ratio) of acetylated peptide ELDPIQK(ac)LFVDK (SEQ ID NO: 365) (ATP synthase-coupling factor 6 mitochondrial [41], ATP5J, drug:DMSO): 0.00 log 2
light to heavy ratio (L/H ratio) of acetylated peptide FEDPK(ac)FEVIEKPQA (SEQ ID NO: 325) (ATP synthase-coupling factor 6 mitochondrial [99], ATP5J, drug:DMSO): 0.00 log 2
light to heavy ratio (L/H ratio) of acetylated peptide, log 2 scale (AVEEK(ac)IEWLESHQDADIEDFK (SEQ ID NO: 172), 78 kDa glucose-regulated protein [601], HSPA5): −0.54
light to heavy ratio (L/H ratio) of acetylated peptide, log 2 scale (AVIWPQYVK(ac)DR (SEQ ID NO: 156), cDNA FLJ59630 highly similar to Growth hormone-inducible transmembrane protein [124], GHITM): 0.47
light to heavy ratio (L/H ratio) of acetylated peptide, log 2 scale (AVK(ac)HAEELER (SEQ ID NO: 225), Isoform 2 of Signal recognition particle 68 kDa protein [164], SRP68): −1.00
light to heavy ratio (L/H ratio) of acetylated peptide, log 2 scale (AYGGSMCAK(ac)CVR (SEQ ID NO: 204), 60S ribosomal protein L34 [85], RPL34): 0.40
L/H ratio of acetylated peptide (AYHLQK(ac)STCGK (SEQ ID NO: 443), 60S ribosomal protein L37 [31], RPL37): 0.00 log 2
light to heavy ratio (L/H ratio) of acetylated peptide AFAK(ac)ELFLGK (SEQ ID NO: 627) (Acyl-CoA dehydrogenase family member 9 mitochondrial [41], gene ACAD9, inhibitor:DMSO): 0.00 log 2
light to heavy ratio (L/H ratio) of acetylated peptide YSAK(ac)DYFFK (SEQ ID NO: 319) (Alpha-soluble NSF attachment protein [203], NAPA, drug:DMSO): 0.44 log 2
light to heavy ratio (L/H ratio) of acetylated peptide PAQGAK(ac)YR (SEQ ID NO: 305) (Annexin A6 [9], ANXA6, drug:DMSO): 0.39 log 2
light to heavy ratio (L/H ratio) of acetylated peptide TKYEK(ac)SLYSMIK (SEQ ID NO: 270) (Annexin A6 [299], ANXA6, drug:DMSO): 0.42 log 2
light to heavy ratio (L/H ratio) of acetylated peptide NDTSGEYK(ac)K (SEQ ID NO: 285) (Annexin A6 [314], ANXA6, drug:DMSO): 0.70 log 2
light to heavy ratio (L/H ratio) of acetylated peptide AINEAYK(ac)EDYHK (SEQ ID NO: 282) (Annexin A6 [478], ANXA6, drug:DMSO): 0.53 log 2
light to heavy ratio (L/H ratio) of acetylated peptide NKPLFFADK(ac)LYK (SEQ ID NO: 298) (Annexin A6 [607], ANXA6, drug:DMSO): 0.51 log 2
light to heavy ratio (L/H ratio) of acetylated peptide GAGTDEK(ac)TLTR (SEQ ID NO: 621) (Annexin A6 [620], gene ANXA6, inhibitor:DMSO): 0.00 log 2
light to heavy ratio (L/H ratio), log 2 scale, acetylated peptide EFIEK(ac)YDK (SEQ ID NO: 779) (Annexin A6 [644], gene ANXA6, drug:DMSO): 0.00
light to heavy ratio (L/H ratio) of acetylated peptide DDNGK(ac)PYVLPSVR (SEQ ID NO: 579) (Aspartate aminotransferase mitochondrial [73], gene GOT2, inhibitor:DMSO): 0.00 log 2
light to heavy ratio (L/H ratio) of acetylated peptide ELK(ac)EIQYGIR (SEQ ID NO: 540) (Branched-chain-amino-acid aminotransferase [337], gene BCAT2, inhibitor:DMSO): 0.00 log 2
light to heavy ratio (L/H ratio), log 2 scale, acetylated peptide ESCSK(ac)HASGTSFHLPQPSFR (SEQ ID NO: 780) (Bromodomain and PHD finger-containing protein 3 [105], gene BRPF3, drug:DMSO): 0.00
L/H ratio of acetylated peptide FYGDEEK(ac)DKGLQTSQDAR (SEQ ID NO: 25) (CALR [62], log 2 scale, drug vs DMSO): −0.97
light to heavy ratio (L/H ratio) of acetylated peptide AGLQVYNK(ac)CWK (SEQ ID NO: 260) (CD59 glycoprotein [63], CD59, drug:DMSO): −0.45 log 2
L/H ratio of acetylated peptide ALEHFTDLYDIK(ac)R (SEQ ID NO: 26) (CLTC [637], log 2 scale, drug vs DMSO): −0.62
L/H ratio of acetylated peptide FK(ac)ESFAEMNR (SEQ ID NO: 1) (COX4I1 [87], log 2 scale, drug vs DMSO): 0.52
L/H ratio of acetylated peptide […](ac)QLCTIPR (SEQ ID NO: 27) (CREBBP [1216], log 2 scale, drug vs DMSO): 0.60
L/H ratio of acetylated peptide TNK(ac)NK(ac)SSISR (SEQ ID NO: 13) (CREBBP [1595:1597], log 2 scale, drug vs DMSO): 0.64
L/H ratio of acetylated peptide ALK(ac)DLYCHK (SEQ ID NO: 28) (CREM [240], log 2 scale, drug vs DMSO): 0.43
L/H ratio of acetylated peptide LYCPK(ac)CMDVYTPK (SEQ ID NO: 29) (CSNK2B [139], log 2 scale, drug vs DMSO): −0.39
light to heavy ratio (L/H ratio) of acetylated peptide FVLSSGK(ac)FYGDEEKDK (SEQ ID NO: 281) (Calreticulin [55], CALR, drug:DMSO): −0.51 log 2
light to heavy ratio (L/H ratio) of acetylated peptide VHVIFNYK(ac)GK (SEQ ID NO: 273) (Calreticulin [151], CALR, drug:DMSO): −0.58 log 2
light to heavy ratio (L/H ratio) of acetylated peptide NVLINK(ac)DIR (SEQ ID NO: 257) (Calreticulin [159], CALR, drug:DMSO): −0.88 log 2
light to heavy ratio (L/H ratio) of acetylated peptide TCDLVGEK(ac)GK (SEQ ID NO: 289) (Cation-dependent mannose-6-phosphate receptor [38], M6PR, drug:DMSO): −0.81 log 2
light to heavy ratio (L/H ratio) of acetylated peptide EFALK(ac)HLPNDPMFK (SEQ ID NO: 583) (Citrate synthase mitochondrial [366], gene CS, inhibitor:DMSO): 0.00 log 2
light to heavy ratio (L/H ratio), log 2 scale, acetylated peptide MIYASSK(ac)DAIKK (SEQ ID NO: 763) (Cofilin-1 [121], gene CFL1, drug:DMSO): 0.00
light to heavy ratio (L/H ratio) of acetylated peptide AAEEVEAK(ac)FK (SEQ ID NO: 328) (Coiled-coil-helix-coiled-coil-helix domain-containing protein 3 mitochondrial [173], CHCHD3, drug:DMSO): 0.00 log 2
light to heavy ratio (L/H ratio) of acetylated peptide ASEIGEK(ac)YR (SEQ ID NO: 586) (Conserved hypothetical protein [484], gene KIAA0947, inhibitor:DMSO): 0.00 log 2
light to heavy ratio (L/H ratio) of acetylated peptide DHCVAHK(ac)LFNNLK (SEQ ID NO: 608) (Cytochrome b-c1 complex subunit 6 mitochondrial [85], gene UQCRH, inhibitor:DMSO): 0.00 log 2
